Test: xn = mol fraction of the nth substance listed
Conditions: 101 kPa, Liquid; for viscosity: Concentric cylinders viscometry; for mass density: Vibrating tube method

CCCn1cc[n+](C)c1.F[B-](F)(F)F [1-propyl-3-methylimidazolium tetrafluoroborate] + CCn1cc[n+](C)c1.F[B-](F)(F)F
Conditions | mass density [kg/m3] | viscosity [mPa·s]
293.15 K, x2 = 0 | 1239.3 | 95.44
293.15 K, x2 = 0.1003 | 1243.5 | 88.85
293.15 K, x2 = 0.2001 | 1247.8 | 82.33
293.15 K, x2 = 0.2997 | 1251.7 | 76.28
293.15 K, x2 = 0.3999 | 1256.1 | 70.61
293.15 K, x2 = 0.4996 | 1260.6 | 65.46
293.15 K, x2 = 0.5991 | 1265 | 60.73
293.15 K, x2 = 0.6997 | 1269.7 | 56.34
293.15 K, x2 = 0.7999 | 1274.4 | 52.31
293.15 K, x2 = 0.8998 | 1279.2 | 48.61
298.15 K, x2 = 0 | 1235.7 | 74.04
298.15 K, x2 = 0.1003 | 1239.8 | 69.32
298.15 K, x2 = 0.2001 | 1244 | 64.62
298.15 K, x2 = 0.2997 | 1248 | 60.23
298.15 K, x2 = 0.3999 | 1252.4 | 56.1
298.15 K, x2 = 0.4996 | 1256.9 | 52.32
298.15 K, x2 = 0.5991 | 1261.3 | 48.83
298.15 K, x2 = 0.6997 | 1266 | 45.57
298.15 K, x2 = 0.7999 | 1270.6 | 42.59
298.15 K, x2 = 0.8998 | 1275.5 | 39.79
303.15 K, x2 = 0 | 1232 | 58.59
303.15 K, x2 = 0.1003 | 1236.2 | 55.12
303.15 K, x2 = 0.2001 | 1240.4 | 51.66
303.15 K, x2 = 0.2997 | 1244.3 | 48.42
303.15 K, x2 = 0.3999 | 1248.7 | 45.34
303.15 K, x2 = 0.4996 | 1253.2 | 42.52
303.15 K, x2 = 0.5991 | 1257.5 | 39.91
303.15 K, x2 = 0.6997 | 1262.1 | 37.45
303.15 K, x2 = 0.7999 | 1266.9 | 35.17
303.15 K, x2 = 0.8998 | 1271.7 | 33.06
308.15 K, x2 = 0 | 1228.3 | 47.16
308.15 K, x2 = 0.1003 | 1232.5 | 44.58
308.15 K, x2 = 0.2001 | 1236.6 | 41.98
308.15 K, x2 = 0.2997 | 1240.7 | 39.54
308.15 K, x2 = 0.3999 | 1245 | 37.21
308.15 K, x2 = 0.4996 | 1249.3 | 35.08
308.15 K, x2 = 0.5991 | 1253.8 | 33.08
308.15 K, x2 = 0.6997 | 1258.4 | 31.19
308.15 K, x2 = 0.7999 | 1263.1 | 29.45
308.15 K, x2 = 0.8998 | 1267.7 | 27.82
313.15 K, x2 = 0 | 1224.7 | 38.56
313.15 K, x2 = 0.1003 | 1228.8 | 36.6
313.15 K, x2 = 0.2001 | 1233 | 34.63
313.15 K, x2 = 0.2997 | 1237 | 32.76
313.15 K, x2 = 0.3999 | 1241.3 | 30.97
313.15 K, x2 = 0.4996 | 1245.6 | 29.33
313.15 K, x2 = 0.5991 | 1250.1 | 27.78
313.15 K, x2 = 0.6997 | 1254.6 | 26.3
313.15 K, x2 = 0.7999 | 1259.3 | 24.95
313.15 K, x2 = 0.8998 | 1264 | 23.67
318.15 K, x2 = 0 | 1221 | 31.98
318.15 K, x2 = 0.1003 | 1225.1 | 30.46
318.15 K, x2 = 0.2001 | 1229.3 | 28.93
318.15 K, x2 = 0.2997 | 1233.3 | 27.48
318.15 K, x2 = 0.3999 | 1237.6 | 26.08
318.15 K, x2 = 0.4996 | 1241.9 | 24.8
318.15 K, x2 = 0.5991 | 1246.3 | 23.6
318.15 K, x2 = 0.6997 | 1250.9 | 22.43
318.15 K, x2 = 0.7999 | 1255.6 | 21.36
318.15 K, x2 = 0.8998 | 1260.3 | 20.35
323.15 K, x2 = 0 | 1217.4 | 26.83
323.15 K, x2 = 0.1003 | 1221.5 | 25.66
323.15 K, x2 = 0.2001 | 1225.6 | 24.47
323.15 K, x2 = 0.2997 | 1229.7 | 23.33
323.15 K, x2 = 0.3999 | 1233.9 | 22.21
323.15 K, x2 = 0.4996 | 1238.2 | 21.2
323.15 K, x2 = 0.5991 | 1242.6 | 20.24
323.15 K, x2 = 0.6997 | 1247.1 | 19.31
323.15 K, x2 = 0.7999 | 1251.8 | 18.46
323.15 K, x2 = 0.8998 | 1256.5 | 17.65
328.15 K, x2 = 0 | 1213.8 | 22.77
328.15 K, x2 = 0.1003 | 1217.9 | 21.85
328.15 K, x2 = 0.2001 | 1222 | 20.91
328.15 K, x2 = 0.2997 | 1226 | 20.01
328.15 K, x2 = 0.3999 | 1230.3 | 19.1
328.15 K, x2 = 0.4996 | 1234.6 | 18.3
328.15 K, x2 = 0.5991 | 1238.9 | 17.52
328.15 K, x2 = 0.6997 | 1243.4 | 16.78
328.15 K, x2 = 0.7999 | 1248.1 | 16.07
328.15 K, x2 = 0.8998 | 1252.8 | 15.43
333.15 K, x2 = 0 | 1210.2 | 19.54
333.15 K, x2 = 0.1003 | 1214.3 | 18.8
333.15 K, x2 = 0.2001 | 1218.4 | 18.05
333.15 K, x2 = 0.2997 | 1222.4 | 17.32
333.15 K, x2 = 0.3999 | 1226.6 | 16.57
333.15 K, x2 = 0.4996 | 1230.9 | 15.92
333.15 K, x2 = 0.5991 | 1235.2 | 15.29
333.15 K, x2 = 0.6997 | 1239.8 | 14.67
333.15 K, x2 = 0.7999 | 1244.4 | 14.1
333.15 K, x2 = 0.8998 | 1249.1 | 13.58
338.15 K, x2 = 0 | 1206.6 | 16.92
338.15 K, x2 = 0.1003 | 1210.7 | 16.33
338.15 K, x2 = 0.2001 | 1214.8 | 15.72
338.15 K, x2 = 0.2997 | 1218.8 | 15.12
338.15 K, x2 = 0.3999 | 1222.9 | 14.49
338.15 K, x2 = 0.4996 | 1227.3 | 13.96
338.15 K, x2 = 0.5991 | 1231.6 | 13.43
338.15 K, x2 = 0.6997 | 1236.1 | 12.94
338.15 K, x2 = 0.7999 | 1240.7 | 12.46
338.15 K, x2 = 0.8998 | 1245.4 | 12.04
343.15 K, x2 = 0 | 1203 | 14.77
343.15 K, x2 = 0.1003 | 1207.1 | 14.3
343.15 K, x2 = 0.2001 | 1211.1 | 13.8
343.15 K, x2 = 0.2997 | 1215.2 | 13.3
343.15 K, x2 = 0.3999 | 1219.4 | 12.77
343.15 K, x2 = 0.4996 | 1223.7 | 12.32
343.15 K, x2 = 0.5991 | 1228 | 11.89
343.15 K, x2 = 0.6997 | 1232.5 | 11.47
343.15 K, x2 = 0.7999 | 1237.1 | 11.07
343.15 K, x2 = 0.8998 | 1241.7 | 10.74
